Experimental data as given in PubChem BioAssay AID328 (DTP/NCI, 2004).
“And” between values parts separate entries of the source, which are not always exact repeats. Identical values can stand only once. Toxic doses and inconclusive results are not listed.

System: BDF1 mice, P388 leukemia ip, median survival T/C
Assay: NCI In Vivo Anticancer Drug Screen. Data for tumor model P388 Leukemia (intraperitoneal) in B6D2F1 (BDF1) mice
Conditions: endpoint: median survival time, higher = longer survival
Summary of the method: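 Antitumour effect was judged in vivo: survival in drug-treated mice, normalised to that of vehicle-dosed controls, gives the reported T/C.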

[1] = dose: 50.0 mg/kg/injection, schedule: Q01DX009 (ip), vehicle: Klucel (hydroxypropylcellulose) (HPC)
[2] = dose: 75.0 mg/kg/injection, schedule: Q01DX009 (ip), vehicle: Klucel (hydroxypropylcellulose) (HPC)
[3] = dose: 100.0 mg/kg/injection, schedule: Q04DX003 (ip), vehicle: Klucel (hydroxypropylcellulose) (HPC)
[4] = dose: 50.0 mg/kg/injection, schedule: Q01DX005 (ip), vehicle: saline with Tween-80
[5] = dose: 100.0 mg/kg/injection, schedule: Q01DX005 (ip), vehicle: saline with Tween-80
[6] = dose: 200.0 mg/kg/injection, schedule: Q01DX005 (ip), vehicle: saline with Tween-80
[7] = dose: 200.0 mg/kg/injection, schedule: Q04DX003 (ip), vehicle: Klucel (hydroxypropylcellulose) (HPC)
[8] = dose: 50.0 mg/kg/injection, schedule: Q01DX009 (ip), vehicle: saline with Tween-80
[9] = dose: 100.0 mg/kg/injection, schedule: Q01DX009 (ip), vehicle: saline with Tween-80

SMILES: NC(CSCc1ccc(N(CCCl)CCCl)cc1)C(=O)O (stereo not drawn)
- T/C (dose: 1.2 mg/kg/injection, schedule: Q04DX003 (ip), vehicle: Klucel (hydroxypropylcellulose) (HPC)): 95 % of control
- T/C (dose: 2.6 mg/kg/injection, schedule: Q04DX003 (ip), vehicle: Klucel (hydroxypropylcellulose) (HPC)): 154 % of control
- T/C (dose: 4.0 mg/kg/injection, schedule: Q01DX009 (ip), vehicle: saline with Tween-80): 183 % of control
- T/C (dose: 6.0 mg/kg/injection, schedule: Q01DX009 (ip), vehicle: saline with Tween-80): 206 % of control
- T/C (dose: 6.0 mg/kg/injection, schedule: Q04DX003 (ip), vehicle: Klucel (hydroxypropylcellulose) (HPC)): 154 % of control
- T/C (dose: 9.0 mg/kg/injection, schedule: Q01DX009 (ip), vehicle: saline with Tween-80): 223 % of control
- T/C (dose: 13.0 mg/kg/injection, schedule: Q04DX003 (ip), vehicle: Klucel (hydroxypropylcellulose) (HPC)): 190 % of control
- T/C (dose: 20.0 mg/kg/injection, schedule: Q04DX003 (ip), vehicle: Klucel (hydroxypropylcellulose) (HPC)): 204 % of control
- T/C (dose: 22.0 mg/kg/injection, schedule: Q01DX009 (ip), vehicle: Klucel (hydroxypropylcellulose) (HPC)): 272 % of control
- T/C (dose: 30.0 mg/kg/injection, schedule: Q04DX003 (ip), vehicle: Klucel (hydroxypropylcellulose) (HPC)): 238 % of control and 272 % of control
- T/C (dose: 33.0 mg/kg/injection, schedule: Q01DX009 (ip), vehicle: Klucel (hydroxypropylcellulose) (HPC)): 231 % of control
- T/C (dose: 44.0 mg/kg/injection, schedule: Q04DX003 (ip), vehicle: Klucel (hydroxypropylcellulose) (HPC)): 238 % of control
- T/C [1]: 240 % of control and 250 % of control
- T/C (dose: 67.0 mg/kg/injection, schedule: Q04DX003 (ip), vehicle: Klucel (hydroxypropylcellulose) (HPC)): 235 % of control and 223 % of control
- T/C [2]: 104 % of control
- T/C [3]: 220 % of control
- T/C (dose: 150.0 mg/kg/injection, schedule: Q04DX003 (ip), vehicle: Klucel (hydroxypropylcellulose) (HPC)): 160 % of control

SMILES: N#Cc1c(O)oc2cccnc12
- T/C [4]: 92 % of control
- T/C [5]: 97 % of control
- T/C [6]: 103 % of control

SMILES: O=C1OC(c2ccc([N+](=O)[O-])cc2)Sc2ccccc21 (stereo not drawn)
- T/C [1]: 86 % of control
- T/C (dose: 100.0 mg/kg/injection, schedule: Q01DX001 (ip), vehicle: Klucel (hydroxypropylcellulose) (HPC)): 100 % of control
- T/C [3]: 100 % of control
- T/C (dose: 200.0 mg/kg/injection, schedule: Q01DX001 (ip), vehicle: Klucel (hydroxypropylcellulose) (HPC)): 100 % of control
- T/C (dose: 200.0 mg/kg/injection, schedule: Q01DX009 (ip), vehicle: Klucel (hydroxypropylcellulose) (HPC)): 100 % of control
- T/C [7]: 104 % of control
- T/C (dose: 400.0 mg/kg/injection, schedule: Q01DX001 (ip), vehicle: Klucel (hydroxypropylcellulose) (HPC)): 100 % of control
- T/C (dose: 400.0 mg/kg/injection, schedule: Q04DX003 (ip), vehicle: Klucel (hydroxypropylcellulose) (HPC)): 109 % of control

SMILES: O=[N+]([O-])C(c1ccccc1)C(c1ccccc1)C(c1ccccc1)[N+](=O)[O-] (stereo not drawn)
- T/C [4]: 103 % of control
- T/C [5]: 87 % of control
- T/C [6]: 91 % of control

SMILES: CC(C)(C)C1CCC(C#N)(N=Nc2ccccc2)CC1 (stereo not drawn)
- T/C [4]: 102 % of control
- T/C [5]: 89 % of control

SMILES: COc1ccc(OC(=O)N2C=Cc3ccccc3C2C#N)cc1 (stereo not drawn)
- T/C (dose: 50.0 mg/kg/injection, schedule: Q04DX003 (ip), vehicle: saline): 95 % of control
- T/C (dose: 100.0 mg/kg/injection, schedule: Q04DX003 (ip), vehicle: saline): 100 % of control
- T/C (dose: 200.0 mg/kg/injection, schedule: Q04DX003 (ip), vehicle: saline): 112 % of control

SMILES: CNC1=CC(=O)C1(F)F
- T/C (dose: 25.0 mg/kg/injection, schedule: Q01DX001 (ip), vehicle: saline sonified): 100 % of control
- T/C (dose: 50.0 mg/kg/injection, schedule: Q01DX001 (ip), vehicle: saline sonified): 109 % of control
- T/C (dose: 100.0 mg/kg/injection, schedule: Q01DX001 (ip), vehicle: saline sonified): 100 % of control

SMILES: CS(C)=O.CS(C)=O.[Cl][Sn]([Cl])([Cl])[Cl]
- T/C (dose: 37.5 mg/kg/injection, schedule: Q01DX009 (ip), vehicle: Klucel (hydroxypropylcellulose) (HPC)): 105 % of control
- T/C [2]: 100 % of control
- T/C [3]: 104 % of control
- T/C (dose: 150.0 mg/kg/injection, schedule: Q01DX009 (ip), vehicle: Klucel (hydroxypropylcellulose) (HPC)): 100 % of control
- T/C [7]: 90 % of control

SMILES: CN1CCN(C)P1c1ccccc1
- T/C [8]: 109 % of control
- T/C [9]: 112 % of control
- T/C (dose: 200.0 mg/kg/injection, schedule: Q01DX009 (ip), vehicle: saline with Tween-80): 110 % of control

SMILES: CCC[CH2][Hg][O]C(C)=O
- T/C (dose: 3.13 mg/kg/injection, schedule: Q01DX009 (ip), vehicle: saline with Tween-80): 115 % of control
- T/C (dose: 3.13 mg/kg/injection, schedule: Q04DX003 (ip), vehicle: saline sonified): 110 % of control
- T/C (dose: 4.16 mg/kg/injection, schedule: Q01DX009 (ip), vehicle: saline): 114 % of control
- T/C (dose: 6.25 mg/kg/injection, schedule: Q01DX009 (ip), vehicle: saline): 114 % of control
- T/C (dose: 6.25 mg/kg/injection, schedule: Q04DX003 (ip), vehicle: saline sonified): 120 % of control
- T/C (dose: 8.25 mg/kg/injection, schedule: Q04DX003 (ip), vehicle: saline sonified): 109 % of control
- T/C (dose: 12.5 mg/kg/injection, schedule: Q01DX009 (ip), vehicle: saline with Tween-80): 100 % of control
- T/C (dose: 12.5 mg/kg/injection, schedule: Q04DX003 (ip), vehicle: saline sonified): 118 % of control

SMILES: O=c1[nH]cc(F)c(=O)n1C1OC(CO)C(O)C1O (stereo not drawn)
- T/C (dose: 0.75 mg/kg/injection, schedule: Q01DX009 (ip), vehicle: saline): 169 % of control and 180 % of control
- T/C (dose: 1.5 mg/kg/injection, schedule: Q01DX009 (ip), vehicle: saline): 162 % of control and 217 % of control
- T/C (dose: 3.0 mg/kg/injection, schedule: Q01DX009 (ip), vehicle: saline): 230 % of control and 188 % of control
- T/C (dose: 6.0 mg/kg/injection, schedule: Q01DX009 (ip), vehicle: saline): 100 % of control

SMILES: Cc1cc(O)c2c(c1)C(c1ccc3cc4c(c(O)c3c1O)C(=O)CC(C)(O)C4)c1cccc(O)c1C2=O (stereo not drawn)
- T/C (dose: 0.09 mg/kg/injection, schedule: Q01DX009 (ip), vehicle: olive oil, sesame oil, peanut oil): 102 % of control
- T/C (dose: 0.19 mg/kg/injection, schedule: Q01DX009 (ip), vehicle: olive oil, sesame oil, peanut oil): 100 % of control
- T/C (dose: 0.39 mg/kg/injection, schedule: Q01DX009 (ip), vehicle: olive oil, sesame oil, peanut oil): 102 % of control
- T/C (dose: 0.78 mg/kg/injection, schedule: Q01DX009 (ip), vehicle: olive oil, sesame oil, peanut oil): 106 % of control

SMILES: O=C(/C=N\O)c1ccncc1
- T/C (dose: 50.0 mg/kg/injection, schedule: Q04DX003 (ip), vehicle: Klucel (hydroxypropylcellulose) (HPC)): 100 % of control
- T/C [3]: 100 % of control

SMILES: O=C1CSC(=O)CS1
- T/C [8]: 99 % of control
- T/C [9]: 93 % of control

SMILES: CN(C)c1ccc(-c2nc3c(=O)n(C)c(=O)n(C)c3nc2-c2ccc(N(C)C)cc2)cc1
- T/C (dose: 100.0 mg/kg/injection, schedule: Q04DX002 (ip), vehicle: saline with Tween-80): 106 % of control
- T/C (dose: 200.0 mg/kg/injection, schedule: Q04DX002 (ip), vehicle: saline with Tween-80): 111 % of control
- T/C (dose: 400.0 mg/kg/injection, schedule: Q04DX002 (ip), vehicle: saline with Tween-80): 116 % of control

SMILES: c1ccc(CN2CCn3nccc32)cc1
- T/C (dose: 6.25 mg/kg/injection, schedule: Q01DX009 (ip), vehicle: other): 98 % of control
- T/C (dose: 12.5 mg/kg/injection, schedule: Q01DX009 (ip), vehicle: other): 90 % of control
- T/C (dose: 12.5 mg/kg/injection, schedule: Q04DX003 (ip), vehicle: other): 104 % of control
- T/C (dose: 25.0 mg/kg/injection, schedule: Q01DX009 (ip), vehicle: other): 91 % of control
- T/C (dose: 25.0 mg/kg/injection, schedule: Q04DX003 (ip), vehicle: other): 91 % of control
- T/C (dose: 50.0 mg/kg/injection, schedule: Q01DX009 (ip), vehicle: other): 94 % of control
- T/C (dose: 50.0 mg/kg/injection, schedule: Q04DX003 (ip), vehicle: other): 91 % of control
- T/C (dose: 100.0 mg/kg/injection, schedule: Q01DX009 (ip), vehicle: other): 92 % of control
- T/C (dose: 100.0 mg/kg/injection, schedule: Q04DX003 (ip), vehicle: other): 92 % of control
- T/C (dose: 200.0 mg/kg/injection, schedule: Q04DX003 (ip), vehicle: other): 96 % of control

SMILES: CCC1(C(C)Br)OC2=C(CC(C#N)(C#N)C(C#N)(C#N)C2)O1 (stereo not drawn)
- T/C (dose: 12.0 mg/kg/injection, schedule: Q01DX001 (ip), vehicle: Klucel (hydroxypropylcellulose) (HPC)): 116 % of control
- T/C (dose: 25.0 mg/kg/injection, schedule: Q01DX001 (ip), vehicle: Klucel (hydroxypropylcellulose) (HPC)): 104 % of control
- T/C (dose: 50.0 mg/kg/injection, schedule: Q01DX001 (ip), vehicle: Klucel (hydroxypropylcellulose) (HPC)): 100 % of control
